Assay results reported in patent US20220220106A1, “QUINOLINE COMPOUNDS AND PHARMACEUTICAL COMPOSITIONS AND USES THEREOF” (Academy of Military Medical Sciences, priority 2019, published 2022).

Target: T1, mTOR kinase (Homo sapiens, UniProt P42345)
T1 construct: purchased Thermo Fisher PV4753
Experiment: In vitro inhibitory activity on mTOR kinase (TR-FRET, GFP-4E-BP1 substrate)
Type: biochemical
Conditions: for IC50: 0.5 μg/mL mTOR, 0.4 μM GFP-4E-BP1, 3 μM ATP
Protocol: Preparation of Reaction Buffers:
Basic buffer composition: 50 mM (mmol/L) HEPES (pH 7.5), 1 mM EGTA, 0.01% Tween-20, 10 mM MnCl2, 2 mM DTT (diluted from 500 mM before used).
(2) mTOR kinase buffer solution: 1650 μL of 2.5×mTOR kinase buffer solution was composed of 1640.2 μL of 1× basic buffer and 9.8 μL of mTOR (0.21 mg/mL stock solution), and the final concentration was 0.5 μg/mL.
(3) Detection buffer solution: 3960 μL of 2× detection buffer solution was composed of 3797.1 μL of TR-FRET buffer diluent (purchased from Thermo Fisher, catalog number: PV3574), 4.5 μL of Tb-anti-p4E-BP1 antibody (3.49 μM stock solution, purchased from Thermo Fisher, catalog number: PV4757) and 158 μL of EDTA (500 mM stock solution), and the final concentrations were 2 nM Tb-anti-p4E-BP1 antibody and 10 mM EDTA.
(1) 20 μL of 100% DMSO solution containing 5 mM compound to be tested was added to a 96-well plate.
(2) The compound was serially diluted 3 times in DMSO.
(3) 1 μL of the compound in the previous step was taken, diluted with 19 μL of mTOR kinase buffer, and transferred to another 96-well plate.
(4) 4 μL of mTOR kinase solution (purchased from Thermo Fisher, catalog number: PV4753) was added to a 384-well plate.
(5) 2 μL of the compound in G was taken out and added to the 384-well plate with mTOR kinase, and incubated at room temperature for 15 minutes.
(6) 4 μL of substrate solution was added to initiate the reaction.
The final concentrations of mTOR reaction solution were: 0.5 μg/mL mTOR, 0.4 μM GFP-4E-BP1, 3 μM ATP.
The final concentration of the DMSO solution was 1%.
(7) Incubation was performed for 60 minutes at room temperature.
(8) 10 μL of detection buffer was added. The final concentrations were 2 nM Tb-anti-p4E-BP1 antibody and 10 mM EDTA.
(9) Incubation was performed for 30 minutes at room temperature.
(10) TR-FRET value was read on MD5 multi-mode plate reader (Molecular Devices). The excitation wavelength was 340 nm, the emission wavelength 1 was 495 nm, and the emission wavelength 2 was 520 nm. The ratio of 520 nm/495 nm readings was calculated as TR-FRET value.
IC50 of compound was fitted by nonlinear regression equation:
Y=Bottom+(Top-Bottom)/(1+10^((LogIC50-X)*HillSlope));
X: common logarithm value of compound concentration; Y: TR-FRET value (520 nm/495 nm).

T1 sequence (P42345 1360-2549 limits assumed): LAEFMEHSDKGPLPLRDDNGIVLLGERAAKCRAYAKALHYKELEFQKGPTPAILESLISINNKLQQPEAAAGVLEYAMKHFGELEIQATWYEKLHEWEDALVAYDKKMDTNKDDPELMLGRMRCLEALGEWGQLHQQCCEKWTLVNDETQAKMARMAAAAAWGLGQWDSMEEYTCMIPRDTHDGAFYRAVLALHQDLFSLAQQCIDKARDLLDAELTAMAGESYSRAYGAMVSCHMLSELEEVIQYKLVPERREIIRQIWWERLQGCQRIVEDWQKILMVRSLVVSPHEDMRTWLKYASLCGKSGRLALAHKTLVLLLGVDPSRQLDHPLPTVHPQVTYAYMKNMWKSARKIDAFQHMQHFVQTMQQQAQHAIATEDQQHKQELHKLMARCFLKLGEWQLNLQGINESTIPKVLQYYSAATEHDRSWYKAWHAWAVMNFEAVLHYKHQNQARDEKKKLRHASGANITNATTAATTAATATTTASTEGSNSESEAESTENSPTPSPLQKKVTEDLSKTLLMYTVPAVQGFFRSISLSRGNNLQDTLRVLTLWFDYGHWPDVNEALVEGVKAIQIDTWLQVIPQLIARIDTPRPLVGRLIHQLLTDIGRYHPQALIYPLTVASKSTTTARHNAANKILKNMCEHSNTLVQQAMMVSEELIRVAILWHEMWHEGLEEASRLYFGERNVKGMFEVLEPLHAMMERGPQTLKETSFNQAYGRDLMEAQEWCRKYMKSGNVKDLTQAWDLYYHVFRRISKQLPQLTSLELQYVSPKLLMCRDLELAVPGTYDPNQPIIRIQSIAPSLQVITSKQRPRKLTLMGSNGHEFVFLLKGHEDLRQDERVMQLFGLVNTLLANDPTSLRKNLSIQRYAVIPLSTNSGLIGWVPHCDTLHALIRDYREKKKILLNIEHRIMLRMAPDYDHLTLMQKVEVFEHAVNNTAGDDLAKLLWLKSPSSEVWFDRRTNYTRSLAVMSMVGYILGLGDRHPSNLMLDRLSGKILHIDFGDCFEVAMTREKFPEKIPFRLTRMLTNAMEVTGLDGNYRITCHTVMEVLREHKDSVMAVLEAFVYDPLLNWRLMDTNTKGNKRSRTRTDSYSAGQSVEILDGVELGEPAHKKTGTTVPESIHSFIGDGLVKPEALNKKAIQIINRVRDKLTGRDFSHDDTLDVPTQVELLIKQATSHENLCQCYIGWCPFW

Structure (SMILES) | inhibitory activity on mTOR kinase, in words | IC50 [nM]
Nc1cccc(Nc2ccc3ncc4ccc(=O)n(-c5cccc(C(F)(F)F)c5)c4c3c2)c1 [HTL-6-11, 9-(3-aminophenyl)imino-2-oxo-1-[3-(trifluoromethyl)phenyl]-1,2-dihydrobenzo[h][1,6]naphthyridine] | moderate inhibitory activity | 255
Nc1cccc(Nc2ccc3ncc4ccc(=O)n(-c5cccc(C(F)(F)F)c5)c4c3c2)n1 [HTL-6-12, 9-[2-(6-aminopyridyl)]imino-2-oxo-1-[3-(trifluoromethyl)phenyl]-1,2-dihydrobenzo[h][1,6]naphthyridine] | – | 68.2
Cc1ncccc1-c1ccc2ncc3ccc(=O)n(-c4cccc(C(F)(F)F)c4)c3c2c1 [HTL-6-49, 9-[3-(2-methyl)pyridyl]-2-oxo-1-[3-(trifluoromethyl)phenyl]-1,2-dihydrobenzo[h][1,6]naphthyridine] | – | 11.9
O=C1Cc2cc(-c3ccc4ncc5ccc(=O)n(-c6cccc(C(F)(F)F)c6)c5c4c3)ccc2N1 [HTL-7-04, 9-[5-(2-oxo)indolyl]-2-oxo-1-[3-(trifluoromethyl)phenyl]-1,2-dihydrobenzo[h][1,6]naphthyridine] | moderate inhibitory activity | 240
CCCC(=O)Nc1ccc(-c2ccc3ncc4ccc(=O)n(-c5cccc(C(F)(F)F)c5)c4c3c2)cn1 [HTL-7-05, 9-[3-(6-butyrylamino)pyridyl]-2-oxo-1-[3-(trifluoromethyl)phenyl]-1,2-dihydrobenzo[h][1,6]naphthyridine] | – | 39
CCCCC(=O)Nc1ccc(-c2ccc3ncc4ccc(=O)n(-c5cccc(C(F)(F)F)c5)c4c3c2)cn1 [HTL-7-08, 9-[3-(6-valerylamino)pyridyl]-2-oxo-1-[3-(trifluoromethyl)phenyl]-1,2-dihydrobenzo[h][1,6]naphthyridine] | – | 76.6
O=C(Cc1ccccc1)Nc1ccc(-c2ccc3ncc4ccc(=O)n(-c5cccc(C(F)(F)F)c5)c4c3c2)cn1 [HTL-7-10, 9-[3-(6-phenylacetylamino)pyridyl]-2-oxo-1-[3-(trifluoromethyl)phenyl]-1,2-dihydrobenzo[h][1,6]naphthyridine] | – | 34.8
O=C(Nc1ccc(-c2ccc3ncc4ccc(=O)n(-c5cccc(C(F)(F)F)c5)c4c3c2)cn1)OCc1ccccc1 [HTL-7-14, 9-[3-(6-benzyloxyamido)pyridyl]-2-oxo-1-[3-(trifluoromethyl)phenyl]-1,2-dihydrobenzo[h][1,6]naphthyridine] | moderate inhibitory activity | 306
O=C(Nc1ccc(-c2ccc3ncc4ccc(=O)n(-c5cccc(C(F)(F)F)c5)c4c3c2)cn1)Oc1ccccc1 [HTL-7-15, 9-[3-(6-phenoxyamido)pyridyl]-2-oxo-1-[3-(trifluoromethyl)phenyl]-1,2-dihydrobenzo[h][1,6]naphthyridine] | – | 25
CN(C)c1ccc(-c2ccc3ncc4ccc(=O)n(-c5cccc(C(F)(F)F)c5)c4c3c2)cn1 [HTL-7-16, 9-[3-(6-N,N-dimethyl)pyridyl]-2-oxo-1-[3-(trifluoromethyl)phenyl]-1,2-dihydrobenzo[h][1,6]naphthyridine] | excellent inhibitory activity | 8.91
O=c1ccc2cnc3ccc(-c4ccc(N5CCOCC5)nc4)cc3c2n1-c1cccc(C(F)(F)F)c1 [HTL-7-18, 9-[3-(6-morpholin-4-yl)pyridyl]-2-oxo-1-[3-(trifluoromethyl)phenyl]-1,2-dihydrobenzo[h][1,6]naphthyridine] | – | 22.7
O=c1ccc2cnc3ccc(-c4ccc(N5CCCC5)nc4)cc3c2n1-c1cccc(C(F)(F)F)c1 [HTL-7-20, 9-[3-(6-pyrrolidinyl)pyridyl]-2-oxo-1-[3-(trifluoromethyl)phenyl]-1,2-dihydrobenzo[h][1,6]naphthyridine] | – | 11.3
CC(C)(C)OC(=O)Nc1ccc(-c2ccc3ncc4ccc(=O)n(-c5cccc(C(F)(F)F)c5)c4c3c2)cn1 [HTL-7-21, 9-[3-(6-tert-butoxycarbonylamino)pyridyl]-2-oxo-1-[3-(trifluoromethyl)phenyl]-1,2-dihydrobenzo[h][1,6]naphthyridine] | – | 11.9
